In patent publication US5599937A, “Heteroaromatic quinuclidinenes, their use and preparation” (Pharmacia AB, priority 1992, dated 1997) one finds Emax and Kb data, which are given here for ten compounds.

The term Emax denotes the size of the effect at its maximum, as opposed to the concentration needed. As usually defined, the Kb is the equilibrium dissociation constant of an antagonist, usually derived from a functional assay.

T1 sequence (H0W1Z3 1-590): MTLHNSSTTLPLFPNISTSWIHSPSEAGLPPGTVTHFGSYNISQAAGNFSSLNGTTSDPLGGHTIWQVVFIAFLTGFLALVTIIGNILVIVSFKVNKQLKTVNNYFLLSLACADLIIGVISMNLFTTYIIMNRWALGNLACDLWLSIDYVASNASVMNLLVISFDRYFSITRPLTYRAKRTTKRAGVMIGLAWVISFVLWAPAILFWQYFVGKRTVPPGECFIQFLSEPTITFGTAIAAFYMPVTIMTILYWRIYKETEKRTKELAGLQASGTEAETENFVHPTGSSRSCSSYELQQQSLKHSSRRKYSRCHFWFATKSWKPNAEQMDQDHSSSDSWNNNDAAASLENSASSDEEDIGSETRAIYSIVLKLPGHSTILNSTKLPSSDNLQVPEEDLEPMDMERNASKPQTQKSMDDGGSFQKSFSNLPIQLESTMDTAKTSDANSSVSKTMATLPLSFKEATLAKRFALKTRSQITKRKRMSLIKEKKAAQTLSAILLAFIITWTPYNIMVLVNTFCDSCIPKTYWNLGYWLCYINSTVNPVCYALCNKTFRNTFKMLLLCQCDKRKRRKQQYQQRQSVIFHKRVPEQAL

The subject of the first assay is ileum (longitudinal muscle). Briefly: Functional in vitro study: muscarinic (agonistic) activity on ileal preparations. To be noted: Cavia porcellus, guinea pig ileum, read-out: agonistic effect on ileum in relation to maximal carbachol response (Emax). Here is the method:
(§1) Male guinea pigs, weighing about 300 g, were killed by a blow on the neck and exsanguinated. Smooth muscle strips of the urinary bladder and ileum (longitudinal muscle only) were dissected in a Krebs-Henseleit solution (pH 7.4). The strip preparations were then vertically mounted between two hooks in thermostatically controlled (37° C.) organ baths (5 mL). One of the hooks was adjustable and connected to a force transducer (FT 03, Grass Instruments). The Krebs-Henseleit solution was continuously bubbled with carbogen gas (93.5% O2 /6.5% CO2) to maintain pH at 7.4. Isometric tension was recorded by a Grass Polygraph (model 79D). A resting tension of approximately 5 mN was initially applied on each muscle strip and the preparations were allowed to stabilize for at least 45 min. The resting tension was repeatedly adjusted and the preparations were washed several times during the stabilization period.
The urinary bladder strips were used for evaluation of antimuscarinic activity and the ileal preparations for studies of muscarinic activity. Carbachol (carbamylcholine chloride) was used as the standard agonist. Concentration-response curves to agonists were generated either by the cumulative dose-response technique (bladder strip) or by the addition of single agonist concentrations (ileal preparations). […] EC50 values were graphically determined. […]
Regarding `COC(=O)c1ccc(C2=CN3CCC2CC3)o1` [Example 31, 3-(2-Methoxycarbonyl-5-furyl)-quinuclidin-2-ene], the Emax at 500 µM worked out at 21%. `Cc1ccc(C2=CN3CCC2CC3)s1` [Example 19, 3-(5-methyl-2-thienyl)quinuclidin-2-ene]: the Emax at 500 µM amounted to 10%.

The next assay addresses T1, smooth muscle strips of the urinary bladder (Cavia porcellus, UniProt H0W1Z3).
T1 construct: Smooth muscle strips of the urinary bladder and ileum (longitudinal muscle only) were dissected; from tissue; host or cells: guinea pig urinary bladder smooth muscle strips
Kind of assay: Functional in vitro study: antimuscarinic activity (antagonism of carbachol contraction) on urinary bladder strips. Details: species or system guinea pig.
Details: not given
As for the experimental part: as §1
The urinary bladder strips were used for evaluation of antimuscarinic activity and the ileal preparations for studies of muscarinic activity. Carbachol (carbamylcholine chloride) was used as the standard agonist. Concentration-response curves to agonists were generated either by the cumulative dose-response technique (bladder strip) or by the addition of single agonist concentrations (ileal preparations). In the latter case, the preparations were washed and allowed to rest between each concentration of agonist. EC50 values were graphically determined.
In studies of antagonism, a control concentration-response curve to carbachol was generated by cumulative addition of carbachol to the bladder strip (i.e., stepwise increase of the agonist concentration until the maximal contractile response was reached), followed by washing out and a resting period of at least 15 min. before a fix concentration of the test compound (antagonist) was added to the organ-bath. After 60 min. of incubation, a second cumulative concentration-response curve to carbachol was generated. Responses were expressed as percent of the maximal response to carbachol. EC50 -values for carbachol in the absence (control) and presence of antagonist were graphically derived and dose ratios (r) were calculated. Dissociation constants, Kb, for the antagonists were then calculated using the following equation (1), where [A] is the concentration of test compound.
In turn, `CCc1ccc(C2(O)CN3CCC2CC3)o1` (stereo not drawn) [Example 8, 3-(5-Ethyl-2-furyl)quinuclidin-3-ol] returned an antagonist dissociation constant (Kb) of 6.7 µM.

In the case of `Cc1ccc(C2(O)CN3CCC2CC3)o1` (stereo not drawn) [Example 4, 3-(5-Methyl-2-furyl)quinuclidin-3-ol], the Kb came out at 1.2 µM. Still for that read-out and setting: the same measure for `Cc1ccc(C2(O)CN3CCC2CC3)s1` (stereo not drawn) [Example 6, 3-(5-Methylthienyl)quinuclidin-3-ol]: 23 µM.

The assay is the same for the next values; noted with them: read-out: Kb (dissociation constant for the antagonist).
With `Cc1ccc(C2=CN3CCC2CC3)o1` [Example 17, 3-(5-Methyl-2-furyl)quinuclidin-2-ene], the Kb amounted to 0.061 µM.

Take `C1=C(c2ccc(-c3ccccc3)o2)C2CCN1CC2` [Example 29, 3-(5-Phenylfuran-2-yl)quinuclidin-2-ene]: the Kb is 1.02 µM. Consider `CCc1ccc(C2=CN3CCC2CC3)o1` [Example 21, 3-(5-Ethyl-2-furyl)quinuclidin-2-ene], for which the Kb was 0.031 µM.

With `COC(=O)c1ccc(C2=CN3CCC2CC3)o1` [Example 31, 3-(2-Methoxycarbonyl-5-furyl)-quinuclidin-2-ene], the Kb came out at 2.6 µM. On the same count and under the same terms, with `Cc1ccc(C2=CN3CCC2CC3)s1` [Example 19, 3-(5-methyl-2-thienyl)quinuclidin-2-ene] the figure was 0.32 µM; with `C1=C(c2occc2-c2ccccc2)C2CCN1CC2` [Example 27, 3-(3-Phenylfuran-2-yl)quinuclidin-2-ene], 0.0027 µM.

The assay is the same for the next values; noted with them: read-out: Kb (dissociation constant for the antagonist); guinea pig urinary bladder strip; antagonism of carbachol; 60 min incubation; Kb=[A]/r-1.
Consider `OC1(c2occc2Br)CN2CCC1CC2` (stereo not drawn) [Example 7, 3-(3-Bromo-2-furyl)quinuclidin-3-ol], for which the Kb was 11 µM.
